Experimental data reported in PMC11211543, “Molecular mimicry of SARS-COV-2 antigens as a possible natural anti-cancer preventive immunization” (Frontiers in Immunology, 2024).

Assays:
[1] = test system: CD3+/CD8+ T cells of PBMCs from healthy vaccinated donors; assay: pMHC multimer (tetramer) T cell staining; type: cell-based, human; settings: MHC-class I tetramer staining
[2] = test system: PBMCs from HLA-A*02:01–positive individuals; assay: IFN-γ ELISpot assay; type: cell-based, human; settings: 10 μg/mL peptide, 3×10^5 PBMCs per well, 20 hours, 37°C; SFU per 10^6 PBMCs; mean of subjects, triplicate tests averaged
[3] = test system: CD3+/CD8+ T cells of PBMCs from vaccinated donors; type: cell-based, human; settings: for percentage of circulating reacting CD8+ T cells specific to the spike peptide, average: PBMCs from 7 vaccinated donors stimulated ex vivo 3 days with the Spike peptide, Dextramer loaded with the same viral peptide; for percentage of circulating reacting CD8+ T cells specific to the homologous TAA epitope, average: TAAs paired to non-spike epitopes; for sum of the reactivities of all subjects for the epitope pair: value of the pair viral epitope/TAA
[4] = test system: CD8+ T cell; settings: 59 Spike epitopes, different HLA alleles; cited from earlier work
Excerpt: We have recently assessed T cell reactivity against 59 epitopes predicted in the Spike protein associated to different HLA alleles, covering both the S1 and S2 subunits. In particular, 11 were associated with the HLA-A*02:01 and only three were located in the S1 subunit, namely […] at position 62 and […] at position 269 in the NTD region; […] at position 512 in the RBD region.

Sequence: KIADYNYKL [Wuhan, Alpha, Delta]
- percentage of circulating CD8+ T cells specific for the peptide, average [1]: 0,18%
- IFN-γ ELISpot, average over subjects [2]: 9.8 SFU

Sequence: HLMSFPQSA
- percentage of circulating reacting CD8+ T cells specific to the spike peptide, average [3]: 0.8%

Sequence: FVGEFFTDV [reference compound]
- percentage of circulating reacting CD8+ T cells specific to the homologous TAA epitope, average [3]: 0.36%

Sequence: NYNYLYRLF [reference compound]
- immunodominance of CD8+ T cell memory response [4]: strongest immunodominance

Sequence: ALLALTSAV [reference compound]
- percentage of circulating reacting CD8+ T cells specific to the homologous TAA epitope, average [3]: 1.34%
- sum of the reactivities of all subjects for the epitope pair [3]: > 9 % of the total circulating T cells

Sequence: KLLEEWNLV
- sum of the reactivities of all subjects for the epitope pair [3]: ~ 6 % of the total circulating T cells

Sequence: YLQPRTFLL
- percentage of circulating CD8+ T cells specific for the peptide, average [1]: 1,23%
- IFN-γ ELISpot, average over subjects [2]: 87.9 SFU
- immunodominance of CD8+ T cell memory response [4]: strongest immunodominance

Sequence: VLLSMQGAV
- sum of the reactivities of all subjects for the epitope pair [3]: > 9 % of the total circulating T cells

Sequence: VLNDIFSRL
- percentage of circulating reacting CD8+ T cells specific to the spike peptide, average [3]: 1.04%

Sequence: LTDEMIAQY [reference compound]
- IFN-γ ELISpot, average over subjects [2]: 10.8 SFU

Sequence: RLLQETELV [reference compound]
- sum of the reactivities of all subjects for the epitope pair [3]: ~ 6 % of the total circulating T cells
